Test results reported in patent US9028887B2, “Method improve spatial memory via pterostilbene administration” (The United States of America, as represented by the …, priority 2007, dated 2015).

Test system: M1-transfected COS-7 cells
Experiment: Calcium recovery in M1-transfected COS-7 cells after dopamine treatment and oxotremorine-induced depolarization
Assay type: cell-based, African green monkey
Details: then 1 mM dopamine 4 hours, 750 μM oxotremorine depolarization
Experimental: COS-7 cells, a cell line derived from African green monkey kidney, were grown in Dulbecco's Modified Eagle's Medium (D-MEM) supplemented with 10% fetal bovine serum (FBS) and containing 100 U/ml penicillin and 100 μg/ml streptomycin sulfate. Twenty four hours prior to transfection, cells were harvested with trypsin, counted, and plated on […] tissue culture plates at 5×10^6 cells/plate. Cells were transiently transfected with rat muscarinic receptor subtype 1 DNA by the DEAE-dextran method. After transfection, cells were incubated 2.5 hours in growth medium containing 80 μM chloroquine to minimize degradation of the DNA. Transfected cells were then maintained in growth medium for 48 hours, harvested with trypsin, plated to coverslips in 35 mm plates for calcium imaging, and incubated overnight.
Dis. 6:403-411, and hereby incorporated by reference. The BB extract and stilbenes were dissolved in growth media and cells were subsequently incubated for 45 minutes at 37° C. with the treated growth medium, followed by dopamine administration for 4 hours. Following these incubations, the cells were washed three times with extract-free growth medium prior to testing.
Calcium imaging was carried out using a Medical Systems Corp. open perfusion micro-incubator (37° C.) with temperature control that was mounted on the stage of a Nikon Eclipse TE200U microscope and illuminated with a fluorescent light source. Transfected cells were loaded with Fura-2/acetoxymethyl ester (2 μM) in loading medium (99% DMEM 1% FES) for 40 minutes at 37° C. with 5% CO2.
Real time analyses of calcium flux prior to and following 750 μM oxotremorine-induced depolarization were then carried out using Simple PCI software (Compix, Inc. Mars, Pa.). Response and recovery were then determined for each sample. […] Recovery was determined by assessing the time (within 300 sec) for the Ca^2+ levels to return to 20% of the increase following depolarization in the cells that responded. Data was analyzed by Kruskal-Wallis one-way analysis of variance and Mann-Whitney U tests.

Row | SMILES | protection against dopamine-induced decreases in Ca2+ Recovery (10 μg/ml pre-treatment 45 min) | protection against dopamine-induced decreases in Ca2+ Recovery (50 μg/ml pre-treatment 45 min) | also measured
1 | COc1cc(/C=C/c2ccc(O[C@@H]3O[C@H](CO)[C@@H](O)[C@H](O)[C@H]3O)cc2)cc(OC)c1 [pterostilbene glucoside] | protected against the dopamine-induced decreases in Recovery | – | –
2 | COc1cc(O)cc(/C=C/c2ccc(O)cc2)c1 [pinostilbene, trans-3,4′-dihydroxy-5-methoxystilbene] | – | offered no protection | –
3 | Oc1ccc(/C=C/c2cc(O)cc(O)c2)cc1 [resveratrol, trans-3,5,4′-trihydroxystilbene] | – | offered no protection | –
4 | COc1ccc(/C=C/c2cc(O)cc(O)c2)cc1 [desoxyrhapontigenin, trans-3,5-dihydroxy-4′-methoxystilbene] | – | – | protection against dopamine-induced decreases in Ca2+ Recovery (25 μg/ml pre-treatment 45 min): offered no protection
5 | COc1ccc(/C=C/c2cc(OC)cc(OC)c2)cc1 [resveratrol trimethylether, trans-3,5,4′-trimethyletherstilbene] | protected against the dopamine-induced decreases in Recovery | – | –
6 | Oc1cc(O)cc(/C=C/c2ccc(O)c(O)c2)c1 [piceatannol, trans-3,4,3′,5′-tetrahydroxystilbene] | protected against the dopamine-induced decreases in Recovery | – | –
